Laboratory results: patent publication US6703413B2 (Rhode Island Hospital, priority 1999, dated 2004)
Where two headings read alike, the source gives them in different places.

How the values were obtained:
Assay in all cases: Cell growth inhibition, 3 d exposure, cell counting
A-549 lung tumor cells = type: cell-based; conditions: Homo sapiens, A549, 72 h
Procedure: (§1) One ml of this cell suspension was added to each well of a 12 well cell culture plate that contained 3 ml of appropriate media plus serum. […] Control wells received 40 μl of 5% Kollidon 17 PF alone. Seventy-two hours later, all cells were harvested by trypsinization and cell number determined electronically using a Coulter Model Z1 particle counter (Coulter Corp., Miami, Fla.) to assess cell growth inhibition. Each experiment was performed in duplicate and repeated a minimum of three times.
(§2) Cells were seeded at a density of 1-5×10^4 cells in each well of a 6 well tissue culture flask. […] After three days, cells were harvested by trypsinization and cell number determined electronically. Cell growth inhibition was determined by comparison to non-Taurolidine exposed control cultures. The IC50 was calculated as the concentration required to inhibit cell number by 50%.

H-157 lung tumor cells = type: cell-based; conditions: Homo sapiens, NCI-H157, 72 h
Procedure: as §1, §2

HT-29 colon tumor cells = type: cell-based; conditions: Homo sapiens, 72 h
Procedure: as §1, §2

[1] = system: PA-1 human ovarian tumor cells; type: cell-based; conditions: PA-1 (ovary)
Procedure: as §1, §2

[2] = system: DU-145 prostate tumor cells; type: cell-based, human
Procedure: as §1, §2

H-596 lung tumor cells = type: cell-based, human
Procedure: as §1, §2

HCT-15 colon tumor cells = type: cell-based, human
Procedure: as §1, §2

HCT-8 colon tumor cells = type: cell-based, human
Procedure: as §1, §2

SMILES: O=S1(=O)CCN(CN2CCS(=O)(=O)NC2)CN1 [Taurolidine, Bis-(1,1-dioxoperhydro-1,2,4-thiadiazinyl-4)methane]
- IC50 (A-549 lung tumor cells): 26.8 ± 7.2 µM
- IC50 (H-157 lung tumor cells): 32.2 ± 5.6 µM
- IC50 (HT-29 colon tumor cells): 18.6 ± 1 µM
- IC50 ([1]; Homo sapiens, 72 h): ~10 µM
- IC50 [1]: 11.4 ± 1.8 µM
- IC50 [2]: 9.8 ± 0.8 µM
- IC50 ([2]; Homo sapiens, DU-145, 72 h): ~10 µM
- IC50 (H-596 lung tumor cells): 34.2 µM
- IC50 (H-596 lung tumor cells; Homo sapiens, NCI-H596, 72 h): ~35 µM
- IC50 (HCT-15 colon tumor cells): 9.6 ± 3 µM
- IC50 (HCT-15 colon tumor cells; Homo sapiens, HCT-15, 72 h): ~10 µM
- IC50 (HCT-8 colon tumor cells): 11.5 ± 0.5 µM
- IC50 (HCT-8 colon tumor cells; Homo sapiens, HCT-8, 72 h): ~10 µM
